According to ChEMBL document CHEMBL1136423, “Phosphate ester serum albumin affinity tags greatly improve peptide half-life in vivo” (Bioorg Med Chem Lett, 2003):
Where a SMILES comes first, the peptide text is derived from it. Bridges are numbered along the chain shown (N, C = ends). The star is where a group is joined. X3 = O=C(CCCCCOP(=O)(O)OC1CCC(c2ccccc2)(c2ccccc2)CC1)*; X4 = O=C(CCC(=O)*)NS(=O)(=O)c1ccc2ccccc2c1; X2 = O=C(CCCCCOP(=O)(O)Oc1ccc2ccccc2c1)*; X1 = O=C(CCCCCOP(=O)(O)OCCCCCc1ccccc1)*

These compounds were tested against Albumin (Oryctolagus cuniculus) (UniProt P49065) (assay: Compound was measured for its retention time in rabbit serum albumin;where k`=tt-t0/t0; tt=retention time of compound and t0=retention time of DMSO).
Chain of Albumin (Oryctolagus cuniculus) (P49065 whole entry, looked up): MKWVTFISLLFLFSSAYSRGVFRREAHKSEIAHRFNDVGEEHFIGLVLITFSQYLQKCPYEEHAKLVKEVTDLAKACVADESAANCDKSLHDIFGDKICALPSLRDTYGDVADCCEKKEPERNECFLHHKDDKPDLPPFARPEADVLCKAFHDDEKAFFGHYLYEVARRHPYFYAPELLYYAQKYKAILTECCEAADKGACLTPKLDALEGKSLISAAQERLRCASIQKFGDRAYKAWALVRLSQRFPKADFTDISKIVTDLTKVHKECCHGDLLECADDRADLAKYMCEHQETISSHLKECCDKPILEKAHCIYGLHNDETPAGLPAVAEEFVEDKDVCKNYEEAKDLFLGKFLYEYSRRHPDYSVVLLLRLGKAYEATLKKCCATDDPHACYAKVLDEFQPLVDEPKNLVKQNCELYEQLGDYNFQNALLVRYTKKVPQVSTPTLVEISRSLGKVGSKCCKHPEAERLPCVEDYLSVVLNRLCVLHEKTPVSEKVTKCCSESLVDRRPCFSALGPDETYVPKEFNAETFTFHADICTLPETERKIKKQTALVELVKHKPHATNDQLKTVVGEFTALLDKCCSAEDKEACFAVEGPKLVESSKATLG
`CC[C@H](C)[C@@H]1NC(=O)[C@H](CCCN=C(N)N)NC(=O)[C@@H]2CCCN2C(=O)[C@H](CC(N)=O)NC(=O)[C@H](CC(=O)O)NC(=O)[C@@H](NC(=O)[C@H](CC(C)C)NC(=O)[C@H](C)NC(=O)CCCCCOP(=O)(O)Oc2ccc3ccccc3c2)CSSC[C@@H](C(=O)N[C@@H](CCC(N)=O)C(=O)N[C@@H](Cc2ccccc2)C(=O)N[C@H](C(=O)N[C@@H](CCC(=O)O)C(=O)NCC(N)=O)C(C)C)NC(=O)[C@H](Cc2ccc(O)cc2)NC(=O)[C@H](Cc2c[nH]c3ccccc23)NC(=O)[C@H](CCCN=C(N)N)NC(=O)[C@H](CC(=O)O)NC1=O` (X2-ALCDNPRIDRWYCQFVEG-NH2; disulfide 3-13) was tested, and the “k'/k'+1” value was 0.97. In the case of `CC[C@H](C)[C@@H]1NC(=O)[C@H](CCCN=C(N)N)NC(=O)[C@@H]2CCCN2C(=O)[C@H](CC(N)=O)NC(=O)[C@H](CC(=O)O)NC(=O)[C@@H](NC(=O)[C@H](CC(C)C)NC(=O)[C@H](C)NC(=O)CCC(=O)NS(=O)(=O)c2ccc3ccccc3c2)CSSC[C@@H](C(=O)N[C@@H](CCC(N)=O)C(=O)N[C@@H](Cc2ccccc2)C(=O)N[C@H](C(=O)N[C@@H](CCC(=O)O)C(=O)NCC(N)=O)C(C)C)NC(=O)[C@H](Cc2ccc(O)cc2)NC(=O)[C@H](Cc2c[nH]c3ccccc23)NC(=O)[C@H](CCCN=C(N)N)NC(=O)[C@H](CC(=O)O)NC1=O` (X4-ALCDNPRIDRWYCQFVEG-NH2; disulfide 3-13), the “k'/k'+1” value is reported as 0.98. For `CC[C@H](C)[C@@H]1NC(=O)[C@H](CCCN=C(N)N)NC(=O)[C@@H]2CCCN2C(=O)[C@H](CC(N)=O)NC(=O)[C@H](CC(=O)O)NC(=O)[C@@H](NC(=O)[C@H](CC(C)C)NC(=O)[C@H](C)NC(C)=O)CSSC[C@@H](C(=O)N[C@@H](CCC(N)=O)C(=O)N[C@@H](Cc2ccccc2)C(=O)N[C@H](C(=O)N[C@@H](CCC(=O)O)C(=O)NCC(N)=O)C(C)C)NC(=O)[C@H](Cc2ccc(O)cc2)NC(=O)[C@H](Cc2c[nH]c3ccccc23)NC(=O)[C@H](CCCN=C(N)N)NC(=O)[C@H](CC(=O)O)NC1=O` (Ac-ALCDNPRIDRWYCQFVEG-NH2; disulfide 3-13), the “k'/k'+1” value was 0.39. For `CC[C@H](C)[C@@H]1NC(=O)[C@H](CCCN=C(N)N)NC(=O)[C@@H]2CCCN2C(=O)[C@H](CC(N)=O)NC(=O)[C@H](CC(=O)O)NC(=O)[C@@H](NC(=O)[C@H](CC(C)C)NC(=O)[C@H](C)NC(=O)CCCCCOP(=O)(O)OC2CCC(c3ccccc3)(c3ccccc3)CC2)CSSC[C@@H](C(=O)N[C@@H](CCC(N)=O)C(=O)N[C@@H](Cc2ccccc2)C(=O)N[C@H](C(=O)N[C@@H](CCC(=O)O)C(=O)NCC(N)=O)C(C)C)NC(=O)[C@H](Cc2ccc(O)cc2)NC(=O)[C@H](Cc2c[nH]c3ccccc23)NC(=O)[C@H](CCCN=C(N)N)NC(=O)[C@H](CC(=O)O)NC1=O` (X3-ALCDNPRIDRWYCQFVEG-NH2; disulfide 3-13), the “k'/k'+1” value was 0.97. For `CC[C@H](C)[C@@H]1NC(=O)[C@H](CCCN=C(N)N)NC(=O)[C@@H]2CCCN2C(=O)[C@H](CC(N)=O)NC(=O)[C@H](CC(=O)O)NC(=O)[C@@H](NC(=O)[C@H](CC(C)C)NC(=O)[C@H](C)NC(=O)CCCCCOP(=O)(O)OCCCCCc2ccccc2)CSSC[C@@H](C(=O)N[C@@H](CCC(N)=O)C(=O)N[C@@H](Cc2ccccc2)C(=O)N[C@H](C(=O)N[C@@H](CCC(=O)O)C(=O)NCC(N)=O)C(C)C)NC(=O)[C@H](Cc2ccc(O)cc2)NC(=O)[C@H](Cc2c[nH]c3ccccc23)NC(=O)[C@H](CCCN=C(N)N)NC(=O)[C@H](CC(=O)O)NC1=O` (X1-ALCDNPRIDRWYCQFVEG-NH2; disulfide 3-13), the “k'/k'+1” value was 0.98.
